The source made the active and inactive calls.
Key:
[1] = biological target: T1, Alkaline phosphatase, tissue-nonspecific isozyme (Homo sapiens, UniProt P05186)
T1 sequence (P05186 whole entry): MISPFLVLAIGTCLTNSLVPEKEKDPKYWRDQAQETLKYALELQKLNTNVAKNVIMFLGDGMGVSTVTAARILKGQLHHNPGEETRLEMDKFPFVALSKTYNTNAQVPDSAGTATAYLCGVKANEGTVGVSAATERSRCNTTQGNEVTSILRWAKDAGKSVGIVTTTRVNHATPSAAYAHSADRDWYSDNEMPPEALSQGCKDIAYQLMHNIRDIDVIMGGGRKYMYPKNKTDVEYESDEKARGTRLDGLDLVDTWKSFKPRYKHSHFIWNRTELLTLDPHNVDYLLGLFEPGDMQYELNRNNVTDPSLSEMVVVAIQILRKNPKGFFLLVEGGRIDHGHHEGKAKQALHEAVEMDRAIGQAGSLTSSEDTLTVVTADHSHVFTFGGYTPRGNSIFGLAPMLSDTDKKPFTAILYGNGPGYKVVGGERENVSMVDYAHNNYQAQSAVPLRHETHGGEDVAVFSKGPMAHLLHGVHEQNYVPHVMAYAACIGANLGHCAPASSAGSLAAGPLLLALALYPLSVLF

cells [2] = format: functional, cell-based
[3] = inhibitors of SNCA 5'UTR-driven reporter translation, confirmation, H4 neuroglioma cells, luminescence (AID 1988); format: functional, cell-based
[4] = Luminescence Cell-Based Dose Response HTS to Identify Inhibitors of 5'UTR Stem-Loop Driven Prion Protein mRNA Translation in H4 Neuroglioblastoma Cells. [Related pubchem assays: 1827 (Project Summary), 1813 (Primary HTS)]; format: functional
[5] = luciferase reporter signal reduction – luminescence, H4-C neuroglioblastoma cells, dose response (AID 2458); format: functional, cell-based;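 note: H4 neuroglioblastoma cells stably carrying a luciferase reporter gene fusion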
[6] = inhibitors of SNCA 5'UTR-driven translation, confirmation, luminescence, H4 neuroglioblastoma cells, dose confirmation (AID 2454); format: functional, cell-based;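 note: H4 neuroglioblastoma cells carrying an alpha-synuclein 5'UTR luciferase reporter; potency for inhibition of the luciferase signal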
[7] = cytotoxicity in HEK-293T NF-kB-Luc cells, dose response, cytotoxicity control for B/T-cell NF-kB inhibitor project, cell-based, uHTS hits (AID 489019); format: functional;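 note: IC50 reflects cytotoxicity as loss of cell viability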
Jurkat = assay: antigen receptor-induced NF-kB inhibitors, dose response, Jurkat, luciferase reporter, luminescence, B- and T-cell (AID 489004); format: functional, cell-based; settings: Homo sapiens;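 note: NF-kB luciferase reporter Jurkat cells stimulated with PMA plus ionomycin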
[8] = inhibitors of firefly luciferase expression or activity, dose response, H4 neuroglioma cells, luminescence (AID 1990); format: functional, cell-based
[9] = biological target: T2, Heat shock 70 kDa protein 1A (Homo sapiens, UniProt P0DMV8); assay: Hsp70 inhibitors, biochemical, TR-FRET (AID 786)
T2 sequence (P0DMV8 whole entry): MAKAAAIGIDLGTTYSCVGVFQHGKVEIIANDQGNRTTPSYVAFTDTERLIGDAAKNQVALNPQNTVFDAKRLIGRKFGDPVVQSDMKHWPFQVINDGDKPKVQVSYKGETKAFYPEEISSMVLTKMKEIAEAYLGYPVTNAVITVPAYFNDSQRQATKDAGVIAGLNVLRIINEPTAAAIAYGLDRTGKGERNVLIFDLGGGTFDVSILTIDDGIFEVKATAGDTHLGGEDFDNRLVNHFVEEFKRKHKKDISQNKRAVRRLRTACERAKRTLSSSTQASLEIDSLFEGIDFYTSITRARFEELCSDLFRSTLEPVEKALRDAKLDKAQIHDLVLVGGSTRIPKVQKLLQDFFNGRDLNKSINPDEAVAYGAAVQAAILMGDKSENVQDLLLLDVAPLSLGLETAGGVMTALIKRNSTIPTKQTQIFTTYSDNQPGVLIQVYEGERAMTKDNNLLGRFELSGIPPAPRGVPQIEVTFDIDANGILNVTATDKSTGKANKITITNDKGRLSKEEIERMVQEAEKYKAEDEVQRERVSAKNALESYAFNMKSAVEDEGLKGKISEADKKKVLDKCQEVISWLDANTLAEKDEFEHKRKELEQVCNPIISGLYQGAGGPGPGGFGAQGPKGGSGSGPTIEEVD

[10] = biological target: T2, Heat shock 70 kDa protein 1A; assay: Hsp70 inhibitors, probe displacement, primary screen, biochemical, fluorescence polarization (AID 583)
Melanocortin receptor 4 = Melanocortin receptor 4 (Homo sapiens, UniProt P32245); assay: MC4R antagonist potency on cAMP, dose response, cell-based, TR-FRET, biased antagonists (AID 602298); format: functional;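 note: antagonist potency against agonist-stimulated cAMP production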
Chain of Melanocortin receptor 4 (P32245 whole entry): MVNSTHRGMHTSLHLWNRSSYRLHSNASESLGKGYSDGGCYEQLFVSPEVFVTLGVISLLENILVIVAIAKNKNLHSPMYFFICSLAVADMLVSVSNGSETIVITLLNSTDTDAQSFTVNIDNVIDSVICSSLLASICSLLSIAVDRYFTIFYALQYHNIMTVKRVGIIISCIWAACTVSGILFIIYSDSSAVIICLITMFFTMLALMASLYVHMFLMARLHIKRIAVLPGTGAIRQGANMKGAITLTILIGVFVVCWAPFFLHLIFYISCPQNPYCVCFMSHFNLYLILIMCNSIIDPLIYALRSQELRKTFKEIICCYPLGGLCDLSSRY

[11] = biological target: Serine/threonine-protein phosphatase PP1-alpha catalytic subunit (Homo sapiens, UniProt P62136); assay: PP1 phosphatase inhibitors, dose response, biochemical, fluorescence (AID 2403);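 note: phosphatase turnover of OMFP into fluorescent 3-O-methylfluorescein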
Chain of Serine/threonine-protein phosphatase PP1-alpha catalytic subunit (P62136 whole entry): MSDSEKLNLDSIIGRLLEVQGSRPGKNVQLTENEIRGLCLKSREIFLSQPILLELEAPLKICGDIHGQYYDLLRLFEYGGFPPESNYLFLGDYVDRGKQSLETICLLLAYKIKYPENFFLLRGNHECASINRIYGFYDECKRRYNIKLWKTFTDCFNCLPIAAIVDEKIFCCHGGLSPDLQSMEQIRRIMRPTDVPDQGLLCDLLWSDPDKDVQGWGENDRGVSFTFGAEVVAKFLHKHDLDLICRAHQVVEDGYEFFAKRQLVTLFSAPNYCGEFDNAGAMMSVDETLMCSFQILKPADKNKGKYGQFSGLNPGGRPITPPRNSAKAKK

[12] = biological target: Serine/threonine-protein phosphatase (Homo sapiens, UniProt Q9BPW0); assay: Counterscreen for inhibitors of PP1: fluorescence-based biochemical high throughput dose response assay to identify inhibitors of Protein Phosphatase 5 (PP5). [Related pubchem assays: 2034 (Summary (PP5 inhibitors)), 1987 (PP5 inhibitors in singlate), 2235 (PP1 inhibitors in singlate)]
Chain of Serine/threonine-protein phosphatase (Q9BPW0 whole entry): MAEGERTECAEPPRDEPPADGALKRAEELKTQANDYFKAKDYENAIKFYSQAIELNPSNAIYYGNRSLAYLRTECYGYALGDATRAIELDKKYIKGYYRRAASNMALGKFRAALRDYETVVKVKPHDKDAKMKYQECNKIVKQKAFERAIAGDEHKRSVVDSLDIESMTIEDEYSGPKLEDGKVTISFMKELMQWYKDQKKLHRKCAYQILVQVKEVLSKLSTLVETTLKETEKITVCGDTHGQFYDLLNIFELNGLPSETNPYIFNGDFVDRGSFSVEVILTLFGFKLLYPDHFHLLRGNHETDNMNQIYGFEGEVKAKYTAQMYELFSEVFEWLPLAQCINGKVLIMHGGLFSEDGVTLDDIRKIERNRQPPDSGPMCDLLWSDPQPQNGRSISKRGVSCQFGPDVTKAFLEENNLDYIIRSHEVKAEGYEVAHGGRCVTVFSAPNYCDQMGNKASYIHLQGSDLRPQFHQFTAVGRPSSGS

Vero [13] = assay: cells; format: functional; settings: Chlorocebus sabaeus
[14] = microbe, parasite or virus in culture; format: functional; settings: Mycobacterium tuberculosis
[15] = nonselective inhibitors of cellular cAMP signaling, dose response, counter-screen for MC4R biased antagonist project, cell-based, TR-FRET cAMP detection (AID 602305); format: functional;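 note: U2OS cells stimulated with forskolin near its EC80 as the cAMP inducer; potency is for inhibition of forskolin-stimulated cAMP signaling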
INS1 = assay: beta cell apoptosis inhibitors, cytokine rescue, dose response, luminescence, retest (AID 449756); format: functional, cell-based; settings: Rattus norvegicus;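 note: cell death triggered by IL-1 beta plus TNF-alpha plus IFN-gamma mixture; protective hits raise ATP signal compared with cytokine alone wells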
[16] = biological target: Heat shock protein HSP 90-alpha (Homo sapiens, UniProt P07900); format: functional, organism-based
Protein skinhead-1 = biological target: T3, Protein skinhead-1 (Caenorhabditis elegans, UniProt P34707); format: functional
T3 sequence (P34707 whole entry): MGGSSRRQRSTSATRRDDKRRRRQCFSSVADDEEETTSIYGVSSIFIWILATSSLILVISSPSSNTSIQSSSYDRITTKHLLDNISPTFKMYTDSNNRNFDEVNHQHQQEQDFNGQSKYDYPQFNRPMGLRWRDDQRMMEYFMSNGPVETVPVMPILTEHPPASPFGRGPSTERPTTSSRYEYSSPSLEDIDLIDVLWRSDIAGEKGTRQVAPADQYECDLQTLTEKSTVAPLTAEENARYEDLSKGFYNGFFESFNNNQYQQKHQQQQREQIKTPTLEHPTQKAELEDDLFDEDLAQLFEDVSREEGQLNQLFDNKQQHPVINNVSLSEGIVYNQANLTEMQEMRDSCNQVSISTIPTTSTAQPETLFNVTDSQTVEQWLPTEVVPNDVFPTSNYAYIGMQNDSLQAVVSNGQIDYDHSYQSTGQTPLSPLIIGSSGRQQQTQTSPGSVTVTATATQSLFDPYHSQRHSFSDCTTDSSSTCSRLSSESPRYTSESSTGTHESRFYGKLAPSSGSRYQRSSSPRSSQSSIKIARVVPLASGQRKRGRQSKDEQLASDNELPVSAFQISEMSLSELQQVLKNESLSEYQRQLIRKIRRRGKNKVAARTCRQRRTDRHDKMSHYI

Vero [17] = assay: cytotoxicity of synthesized analogs in Vero cells, SAR follow-up, cytotoxicity control for West Nile virus antiviral project, cell-based, set II (AID 2402); format: functional; settings: Chlorocebus sabaeus
Vero [18] = assay: cytotoxicity of synthesized analogs in Vero 76, SAR follow-up, cytotoxicity control for West Nile virus antiviral project, Vero 76 cells (AID 2414); format: functional; settings: Chlorocebus sabaeus
[19] = A Cell Based Assay for the Identification of Probe candidate Compounds with Anti- Venezuelan Equine Encephalitis virus. [Related pubchem assays: 2409, 2419, 1621, 2238, 2405, 2024, 2065, 2402, 2414, 1635, 1650, 2244 ]; format: functional
Streptococcus [20] = assay: Luminescence Microorganism-Based Dose Response Follow up to Identify Compounds Cytotoxic to Streptococcus. [Related pubchem assays: 1677 (Project Summary), 1915, 1914, 1902 (Retest at Dose), 1900 (Counter Screen), 1662 (Primary HTS)]; format: functional, organism-based
Streptokinase A = biological target: T4, Streptokinase A (Streptococcus pyogenes serotype M1, UniProt P10520); assay: S. pyogenes streptokinase expression inhibitors, potency, dose response, plasminogen activation absorbance, OD405 (AID 1914); format: functional, Streptococcus pyogenes M1 GAS;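 note: secreted streptokinase activity via plasminogen activation per viability signal from cell pellet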
T4 sequence (P10520 whole entry): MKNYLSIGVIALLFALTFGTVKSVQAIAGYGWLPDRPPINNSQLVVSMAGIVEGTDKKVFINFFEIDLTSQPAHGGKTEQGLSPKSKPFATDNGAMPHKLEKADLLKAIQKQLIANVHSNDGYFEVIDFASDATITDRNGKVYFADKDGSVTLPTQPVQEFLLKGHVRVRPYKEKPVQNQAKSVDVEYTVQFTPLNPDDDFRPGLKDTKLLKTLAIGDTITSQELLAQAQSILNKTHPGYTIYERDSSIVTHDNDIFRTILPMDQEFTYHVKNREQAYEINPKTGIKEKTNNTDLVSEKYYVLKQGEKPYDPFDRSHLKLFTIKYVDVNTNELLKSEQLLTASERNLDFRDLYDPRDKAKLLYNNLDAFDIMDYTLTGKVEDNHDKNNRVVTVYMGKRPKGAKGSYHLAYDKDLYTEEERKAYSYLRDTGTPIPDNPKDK

[21] = tested on: Streptococcus sp. 'group A'; assay: growth inhibition of control SK(-) GAS strain, dose response, counter-screen for streptokinase expression inhibitor project, luminescence, kanamycin, BacTiterGlo, confirmation (AID 1900); format: functional, organism-based
Streptococcus [22] = assay: Group A Streptococcus viability loss, dose response, counter-screen for streptokinase expression inhibitor project, luminescence, BacTiterGlo (AID 1915); format: functional, organism-based;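 note: potency for reduction of bacterial viability or growth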
cells [23] = format: functional, cell-based; remark: listed apart in the source
cells [24] = format: functional, cell-based; remark: listed apart in the source
[25] = biological target: T5, Luciferin 4-monooxygenase (Photinus pyralis, UniProt P08659); assay: firefly luciferase enzyme inhibitors, dose response, biochemical, luminescence (AID 1891)
T5 sequence (P08659 whole entry): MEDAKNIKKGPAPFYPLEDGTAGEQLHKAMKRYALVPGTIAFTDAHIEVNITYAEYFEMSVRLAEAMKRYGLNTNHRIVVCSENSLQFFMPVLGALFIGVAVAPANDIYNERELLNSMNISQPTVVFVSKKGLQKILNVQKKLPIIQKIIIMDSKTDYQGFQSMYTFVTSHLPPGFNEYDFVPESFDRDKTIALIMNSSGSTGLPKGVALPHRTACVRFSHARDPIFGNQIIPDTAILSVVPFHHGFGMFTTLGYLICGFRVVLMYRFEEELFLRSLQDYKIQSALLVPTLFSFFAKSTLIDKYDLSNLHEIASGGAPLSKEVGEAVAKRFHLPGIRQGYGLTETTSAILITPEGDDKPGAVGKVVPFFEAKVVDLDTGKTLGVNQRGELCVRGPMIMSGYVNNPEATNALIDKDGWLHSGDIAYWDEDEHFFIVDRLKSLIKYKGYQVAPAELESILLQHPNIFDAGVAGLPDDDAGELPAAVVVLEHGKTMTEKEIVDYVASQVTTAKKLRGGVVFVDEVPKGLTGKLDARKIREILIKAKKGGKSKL

HT-1080 = assay: cytotoxicity in HT1080 fibrosarcoma cells, cell-based, fluorescence readout (AID 620); format: functional; settings: Homo sapiens
[26] = biological target: T6, Oxysterols receptor LXR-beta (Homo sapiens, UniProt P55055); format: functional, cell-based;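 note: agonist activity at LXR measured by a cell-based luminescence readout across a dose range, run as a counterscreen for daf-12 agonists; HEK293 cells with Gal4-LXR fusion and GAL4-driven luciferase reporter; potency for activation of Gal4-LXR reporter so compounds are agonists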
T6 sequence (P55055 whole entry): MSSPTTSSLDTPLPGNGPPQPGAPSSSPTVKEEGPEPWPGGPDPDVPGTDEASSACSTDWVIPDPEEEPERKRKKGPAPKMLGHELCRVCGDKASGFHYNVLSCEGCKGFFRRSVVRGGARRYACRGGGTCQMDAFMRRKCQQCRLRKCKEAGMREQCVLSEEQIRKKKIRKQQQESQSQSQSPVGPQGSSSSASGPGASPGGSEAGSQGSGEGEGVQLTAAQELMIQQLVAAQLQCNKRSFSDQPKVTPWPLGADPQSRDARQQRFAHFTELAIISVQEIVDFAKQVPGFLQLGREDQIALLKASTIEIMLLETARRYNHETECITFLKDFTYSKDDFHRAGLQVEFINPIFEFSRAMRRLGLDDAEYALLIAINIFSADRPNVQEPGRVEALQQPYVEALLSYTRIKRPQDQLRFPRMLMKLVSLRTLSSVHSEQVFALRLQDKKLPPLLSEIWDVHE

[27] = biological target: T7, Trace amine-associated receptor 1 (Homo sapiens, UniProt Q96RJ0); assay: Counterscreen for agonists of the human trace amine associated receptor 1 (hTAAR1): Fluorescence-based cell-based high throughput dose response assay to identify hTAAR1 agonist that also desensitize TAAR1 receptor response.; format: functional
T7 sequence (Q96RJ0 whole entry): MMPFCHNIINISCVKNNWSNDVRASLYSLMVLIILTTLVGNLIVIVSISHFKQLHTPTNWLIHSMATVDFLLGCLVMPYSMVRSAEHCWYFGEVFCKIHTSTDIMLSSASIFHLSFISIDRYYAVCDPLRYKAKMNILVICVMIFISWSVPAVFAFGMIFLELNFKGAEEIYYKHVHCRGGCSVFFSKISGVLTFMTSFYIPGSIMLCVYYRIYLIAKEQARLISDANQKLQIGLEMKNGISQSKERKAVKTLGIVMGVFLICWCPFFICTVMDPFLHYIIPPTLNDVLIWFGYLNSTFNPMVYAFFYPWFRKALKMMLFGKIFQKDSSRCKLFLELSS

[28] = biological target: T7, Trace amine-associated receptor 1; assay: Fluorescence-based cell-based high throughput dose response assay to identify agonists of the human trace amine associated receptor 1 (TAAR1).; format: functional
[29] = biological target: T5, Luciferin 4-monooxygenase; assay: Counter Screen for Luciferase-based Assay Positives. [Related pubchem assays: 620, 618, 411 ]
[30] = Luminescence Cell-Based Dose Confirmation HTS to Identify Inhibitors of Platelet Dense Granule Release. [Related pubchem assays: 1663 (Primary HTS), 1678 (Summary of Project)]; format: functional
Protein Rev = biological target: T8, Protein Rev (Human immunodeficiency virus type 1 group M subtype B (isolate WMJ22)(HIV-1), UniProt P05866); assay: HIV-1 Rev-RRE RNA binding disruptors, dose response, biochemical, protein-RNA interaction (AID 842); parameters: species or system Human immunodeficiency virus 1
T8 sequence (P05866 whole entry): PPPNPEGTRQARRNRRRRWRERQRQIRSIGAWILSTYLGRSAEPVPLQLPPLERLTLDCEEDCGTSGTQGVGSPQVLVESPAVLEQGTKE

CCOC(=O)CSc1nc2ccccc2c(=O)n1CCC(=O)NCCc1ccc(OC)c(OC)c1
EC50 [1]: > 100 µM (not active)

CC1CCc2c(sc(NC(=O)CSc3nc[nH]n3)c2C#N)C1 (configuration not stated)
EC50 (cells [2]): 0.337 µM (active) | EC50 [3]: < 0.1 µM (active) | EC50 [4]: < 0.1 µM (active) | EC50 [5]: 0.232 µM (active) | EC50 [6]: 0.323 µM (active) | IC50 [7]: > 80 µM (inactive) | IC50 (Jurkat): 0.52 µM (active) | EC50 [8]: < 0.1 µM (active)

Cc1ccnc2c(N3C(=O)C4C5C=CC(C5)C4(C)C3=O)cccc12 (configuration not stated)
IC50 [9]: > 100 µM (not active) | IC50 [10]: > 100 µM (not active)

CC1=NOC(=O)/C1=C/c1ccc(-c2ccc(Cl)cc2)o1
IC50 (Melanocortin receptor 4): 8.05 µM (active) | IC50 [11]: 6.86 µM (active) | IC50 [12]: > 67 µM (not active) | CC50 (Vero [13]): > 25 µM (active) | CC50 [14]: > 40 µM (active) | IC50 [15]: 13.4 µM (inactive) | AC50 (INS1): 6.76 µM (active) | AC50 [16]: 2.08 µM (active) | IC50 (Protein skinhead-1): 62.2 µM (inactive)

C=CCN(C(=O)c1ccccc1Cl)c1nc(-c2ccc(OC)cc2)cs1
CC50 (Vero [17]): 11.1 µM (active) | CC50 (Vero [18]): 24 µM (active) | IC50 [19]: 50.1 µM (active)

O=[N+]([O-])c1ccc(Nc2nc(NCCO)nc(N3CCCC3)n2)cc1
EC50 (Streptococcus [20]): 54.3 µM (active) | EC50 (Streptokinase A): 7.48 µM (active) | EC50 [21]: 6.68 µM (active) | EC50 (Streptococcus [22]): > 150 µM (not active)

Nc1nc(Nc2ccc(Cl)cc2)nc2ccccc12
EC50 (cells [23]): > 29.9 µM (inactive) | IC50 (cells [24]): > 29.9 µM (inactive) | EC50 [25]: 0.347 µM (active) | EC50 (HT-1080): > 50 µM (not active) | EC50 [26]: > 67.5 µM (inactive) | IC50 [27]: 9.98 µM (active) | EC50 [28]: 19.2 µM (inactive) | EC50 [29]: 1.8 µM (active) | EC50 [30]: 2.37 µM (active) | IC50 (Protein Rev): > 79.4 µM (not active)

Source: ChEMBL document CHEMBL1201862, “PubChem BioAssay data set” (2004)
